Test results: patent US20110262442A1, “COMPOSITIONS FOR TREATING CNS DISORDERS” (Adenios, Inc., priority 2009, published 2011)

Key:
Z310 cells = assay: Jurkat cell migration across Z310-seeded Transwell (choroid plexus); assay type: cell-based, murine; details: Z310 cells on Transwell, migrated cells counted after 24 hours, n=1
Protocol: The choroid plexus (“CP”) controls lymphocyte migration into the CNS. The CP expresses the A1 and A2A adenosine receptors. EAE is prevented in mice when A2A adenosine receptor activity is blocked. EAE is enhanced when the A1 adenosine receptor is missing. It was hypothesized that A2A adenosine receptor activation promotes lymphocyte migration across the CP. Z310 cells are a murine choroid plexus cell line. To test the hypothesis, Transwell membranes were seeded with Z310 cells and allowed to grow to confluencey. 2×10^6 Jurkat cells were added to the upper chamber with or with out NECA (n=1, general AR agonist), CCPA (n=1, AAR agonist), CGS 21860 (n=1, A2AAR agonist), or DMSO vehicle (n=1). After 24 hours, migrated cells in the lower chamber were counted. Values are relative to the number of cells that migrate through non-Z310 seeded transwells and the results are shown in FIG. 12.

brain endothelial cells = assay: Actin stress fiber induction in brain endothelial cells; assay type: cell-based
Protocol: To test this brain endothelial cells were treated with either CCPA (to agonize A1 adenosine receptors) or […] (to agonize the A2A adenosine receptor).

hCMEC/D3 cells [1] = assay: Jurkat cell migration across hCMEC/D3-seeded Transwell (in vitro BBB); assay type: cell-based, human; details: hCMEC/D3 on Transwell, migrated cells counted after 24 hours
Description: The blood brain barrier (“BBB”) is comprised of endothelial cells. During late stages of EAE, lymphocytes are known to cross the BBB. In order to determine if adenosine receptor stimulation of brain endothelial cells could promote lymphocyte migration through the BBB, an in vitro BBB was established. The human brain endothelial cell line hCMEC/D3 (Weksler et al., “Blood-brain Barrier-specific Properties of a Human Adult Brain Endothelial Cell Line,” […] (2005); Poller et al., “The Human Brain Endothelial Cell Line hCMEC/D3 as a Human Blood-brain Barrier Model for Drug Transport Studies,” J. Neurochem. 107(5):1358-1368 (2008), which are hereby incorporated by reference in their entirety) was obtained, which has been previously described as having BBB properties.
hCMEC/D3 cells were seeded onto Transwell and allowed to grow to confluencey. 2×10^6 Jurkat cells were added to the upper chamber with or without NECA (general adenosine receptor [AR] agonist), CCPA (A1 AR agonist), CGS 21860 (A2A AR agonist), or DMSO vehicle. After 24 hours, migrated cells in the lower chamber were counted. Values are relative to the number of cells that migrate through non-HCMECD3 seeded transwells.

blood brain barrier [2] = assay: Fluorimetric analysis of labeled dextrans in brain after i.v. drug administration; assay type: in vivo, mice; details: for dextran entry into the CNS compared to NECA administration / dextran entry into the CNS compared to vehicle treatment: wild type mice, 10,000 Da FITC-dextran; for dextran entry into the CNS compared to NECA administration: 3 h after i.v. administration; for dextran entry into the CNS compared to vehicle treatment: 3 h after i.v. co-administration
Protocol: C57BL/6 mice from Jackson Laboratories were used as wild types. All mice used were aged 7-9 weeks and weighed between 20-25 g. All rats were aged 8 weeks and weighed 200-220 g. Mice and rats were bred and housed under specific pathogen-free conditions.
The adenosine receptor agonists NECA, CCPA and CGS 21860 were purchased from Tocris. Each was dissolved in DMSO then diluted in PBS to the desired concentration; in most cases final DMSO concentrations were <0.5% (vol/vol). For vehicle controls, DMSO was diluted in PBS to the same concentration. Dehydrated dextrans labeled with either FITC or Texas Red were purchased from Invitrogen and re-suspended in PBS to 10 mg ml^−1. All experiments involving dextran injection used 0.5 mg dextran in PBS. In experiments where drug and dextran were injected concomitantly, 0.5 mg of dextran was mixed with the drug to the desired concentration in a final volume of 200 μl. All injections were retro-orbital i.v. with a 27-gauge needle. In the SCH 58261 experiment, groups were administered vehicle or SCH 58261 for 4 d. Vehicle/drug and dextrans were injected on day 5 and tissues were collected 3 h after vehicle/drug administration. In Lexiscan experiments, Lexiscan was administered i.v. with 3 injections, 5 min apart and tissues were collected at 15 min unless otherwise indicated.
In dose-response experiments and experiments with the A1 AR and A2A AR knock-out mice, drugs and dextrans were injected concomitantly. After 3 h, the mice were anesthetized with ketamine/xylazine and subjected to a nose cone containing isoflurane. They were perfused with 25-50 ml ice-cold PBS through the left ventricle of the heart then decapitated. Their brains were removed, weighed and frozen for later analysis.
Ice-cold 50 mM Tris-Cl (pH 7.6) was added to frozen brains (100 μl per 100 mg brain) and were to thawed on ice. They were homogenized manually with ˜45 strokes of a dounce homogenizer in plastic 1.5 ml microfuge tubes then spun at 16.1 g in a microfuge for 30 min at room temperature (rt). The supernatants were transferred to new tubes and an equal volume absolute methanol was added. The samples were spun again at 16.1 g for 30 min at rt. Supernatant (200 μl) was transferred to a Corning costar 96 well black polystyrene assay plate (clear bottom). Additionally, a series of standards containing 0.001-10 μg ml^−1 dextran in 50% Tris-Cl/50% absolute methanol (vol/vol) was added to each plate. Absolute concentrations of dextrans were derived from these standard curves. Fluorimetric analysis was performed on a BioTek Synergy 4. FITC-dextran was detected at 488/519 (excitation/emission) and Texas Red-dextran was detected at 592/618.

hCMEC/D3 cells [3] = assay: cAMP levels in human brain endothelial cells (cAMP Screen kit); assay type: cell-based; details: 15 minutes treatment, various concentrations (CCPA: at high levels)
Protocol: Adenosine receptor activation regulates cAMP levels in cells. In order to determine the sensitivity of human brain endothelial cells to adenosine receptor induced cAMP regulation, human brain endothelial cells were cultured with adenosine receptor agonists at various concentrations, followed by cAMP level analysis, as shown in FIG. 13.
HCMECD3 cells were grown to confluencey on 24 well plates. As adenosine receptor (“AR”) stimulation is known to influence cAMP levels, cells were treated with or without various concentrations of NECA (general AR agonist), CCPA (A1 AR agonist), CGS 21860 (A2A AR agonist), DMSO vehicle, or Forksolin (induces cAMP). After 15 minutes, lysis buffer was added and the cells were frozen at −80 C to stop the reaction. Duplicate samples were used for each condition. cAMP levels were assayed using a cAMP Screen kit (Applied Biosystems, Foster City, Calif.).

[4] = tested on: Experimental Autoimmune Encephalomyelitis (EAE); assay: MOG-induced EAE induction and daily scoring; assay type: in vivo, mice; details: wild type mice; 2 mg/kg (1 mg/kg i.p. and 1 mg/kg s.c.) 1 day prior to EAE induction and daily for 30 days; vs DMSO alone
Description: Cd73^−/− mice have been previously described (Thompson et al., “Crucial Role for Ecto-5′-Nucleotidase (CD73) in Vascular Leakage During Hypoxia,” J. Exp. Med. 200:1395-1405 (2004), which is hereby incorporated by reference in its entirety) and have been backcrossed to C57BL/6 for 14 generations. Cd73 mice have no overt susceptibility to infection and appear normal based on the size and cellular composition of their lymphoid organs and their T and B cell responses in in vivo and in vitro assays (Thompson et al., “Crucial Role for Ecto-5′-Nucleotidase (CD73) in Vascular Leakage During Hypoxia,” J. Exp. Med. 200:1395-1405 (2004), which is hereby incorporated by reference in its entirety). C57BL/6 and tcrα^−/− mice on the C57BL/6 background were purchased from The Jackson Laboratories. Mice were bred and housed under specific pathogen-free conditions at Cornell University or the University of Turku. For adenosine receptor blockade experiments, mice were given drinking water supplemented with 0.6 g/L of caffeine (Sigma) or 2 mg/kg SCH58261 (1 mg/kg s.c. and 1 mg/kg i.p.) in DMSO (45% vol. in PBS) or 45% DMSO alone starting 1 day before EAE induction and continuing throughout the experiment. All procedures performed on mice were approved by the relevant animal review committee.
EAE was induced by subjecting mice to the myelin oligodendrocyte glycoprotein (“MOG”) EAE-inducing regimen as described in Swanborg, “Experimental Autoimmune Encephalomyelitis in Rodents as a Model for Human Demyelinating Disease,” Clin. Immunol. Immunopathol. 77:4-13 (1995) and Bynoe et al., “Epicutaneous Immunization with Autoantigenic Peptides Induces T Suppressor Cells that Prevent Experimental Allergic Encephalomyelitis,” Immunity 19:317-328 (2003), which are hereby incorporated by reference in their entirety. Briefly, a 1:1 emulsion of MOG35-55 peptide (3 mg/ml in PBS) (Invitrogen) and complete Freund's adjuvant (CFA, Sigma) was injected subcutaneously (50 μl) into each flank. Pertussis toxin (PTX, 20 ng) (Biological Laboratories Inc.) was given intravenously (200 μl in PBS) at the time of immunization and again 2 days later. Mice were scored daily for EAE based on disease symptom severity; 0=no disease, 0.5-1=weak/limp tail, 2=limp tail and partial hind limb paralysis, 3=total hind limb paralysis, 4=both hind limb and fore limb paralysis, 5=death. Mice with a score of 4 were euthanized.

[5] = tested on: ICAM-1 on the choroid plexus; assay: Immunohistochemistry of ICAM-1 expression at the choroid plexus after EAE induction; assay type: in vivo; details: wild type mice, day 15 post-EAE induction; 2 mg/kg daily; vs DMSO
Description: (§1) Cd73^−/− mice have been previously described (Thompson et al., “Crucial Role for Ecto-5′-Nucleotidase (CD73) in Vascular Leakage During Hypoxia,” J. Exp. Med. 200:1395-1405 (2004), which is hereby incorporated by reference in its entirety) and have been backcrossed to C57BL/6 for 14 generations. Cd73 mice have no overt susceptibility to infection and appear normal based on the size and cellular composition of their lymphoid organs and their T and B cell responses in in vivo and in vitro assays (Thompson et al., “Crucial Role for Ecto-5′-Nucleotidase (CD73) in Vascular Leakage During Hypoxia,” J. Exp. Med. 200:1395-1405 (2004), which is hereby incorporated by reference in its entirety). C57BL/6 and tcrα^−/− mice on the C57BL/6 background were purchased from The Jackson Laboratories. Mice were bred and housed under specific pathogen-free conditions at Cornell University or the University of Turku. For adenosine receptor blockade experiments, mice were given drinking water supplemented with 0.6 g/L of caffeine (Sigma) or 2 mg/kg SCH58261 (1 mg/kg s.c. and 1 mg/kg i.p.) in DMSO (45% vol. in PBS) or 45% DMSO alone starting 1 day before EAE induction and continuing throughout the experiment. All procedures performed on mice were approved by the relevant animal review committee. […]

blood brain barrier [6] = assay: FITC-Dextran extravasation through the brain endothelium (brain sections); assay type: in vivo, mice; details: wild type mice, FIG. 16
Protocol: In order to examine the effects of caffeine, a general adenosine receptor antagonist, on blood brain barrier permeability, mice were fed caffeine for several days and then injected with FITC Dextran, commonly used to assess endothelial permeability.
More particularly, mice were fed 0.6 g/l caffeine (Sigma, St. Louis, Mo.) in water or regular water ad lib for five days. Mice were injected IP with FITC Dextran (10,000 MW, Molecular Probes, Eugene, Oreg.) and after 30 minutes mice were perfused with ice cold PBS via the left ventricle. Brains were removed and snap frozen in OCT (Tissue Tek, Torrance, Calif.) and stored at −80° C. until sectioning. Tissue sections (5 μm) were stained with hematoxylin for light microscopy and with DAPI for a fluorescent counterstain.

[7] = tested on: CNS lymphocyte infiltration; assay: Immunohistochemistry of CD4+ infiltrating lymphocytes in brain and spinal cord after EAE induction; assay type: in vivo; details: wild type mice, day 15 post-EAE induction; 2 mg/kg daily; vs DMSO treated
Description: as §1

Structure (SMILES) | lymphocyte (Jurkat) migration across the CP (Z310 cells) | actin stress fibers compared to vehicle alone (brain endothelial cells) | lymphocyte (Jurkat) migration across the in vitro BBB (hCMEC/D3 cells [1]) | dextran entry into the CNS compared to NECA administration (blood brain barrier [2]) | dextran entry into the CNS compared to vehicle treatment (blood brain barrier [2]) | cAMP levels (hCMEC/D3 cells [3]) | EAE development [4] | entry of 10,000 Da FITC-dextran into brain (blood brain barrier [2]; WT mice, intraperitoneal administration for 4 d, dextran on day 5) | ICAM-1 expression on the choroid plexus following EAE induction [5] | FITC-Dextran extravasation across the blood brain barrier (blood brain barrier [6]) | frequency of CD4+ lymphocytes in the brain and spinal cord [7]
OC[C@H]1O[C@@H](n2cnc3c(NC4CCCC4)nc(Cl)nc32)[C@H](O)[C@@H]1O [CCPA, 2-chloro-N^6-cyclopentyladenosine] | induced lymphocyte migration at high levels | induction of actin stress fibers was observed | induced lymphocyte migration at high levels | significantly lower than that observed after NECA administration | increased dextran entry into the CNS | increased cAMP levels |  |  |  |  | 
CCNC(=O)[C@H]1O[C@@H](n2cnc3c(N)nc(NCCc4ccc(CCC(=O)O)cc4)nc32)[C@H](O)[C@@H]1O [CGS 21680, 4-[2-[[6-Amino-9-(N-ethyl-b-D-ribofuranuronamidosyl)-9H-purin-2-yl]amino]ethyl]benzenepropanoic acid] | promoted lymphocyte migration across the CP |  | promoted lymphocyte migration across the in vitro BBB when used at a lower concentration | significantly lower than that observed after NECA administration | increased dextran entry into the CNS | slightly increased cAMP levels |  |  |  |  | 
Nc1nc2c(cnn2CCc2ccccc2)c2nc(-c3ccco3)nn12 [SCH58261, 2-(2-Furanyl)-7-(2-phenylethyl)-7H-pyrazolo[4,3-e][1,2,4]triazolo[1,5-c]pyrimidin-5-amine] |  |  |  |  |  |  | dramatically protected against EAE development | significantly decreased entry | prevented the up regulation of ICAM-1 | inhibit FITC-Dextran extravasation | significantly lower frequency
